According to paper PMC6554663, “Pharmaceutical Effects of Inhibiting the Soluble Epoxide Hydrolase in Canine Osteoarthritis” (Frontiers in Pharmacology, 2019):
In brackets after ≈: the same amount, converted by molar mass. Several values for one entry are separate records, joined by “and”; a condition that tells them apart may be missing. Identical values can stand only once. Entries after “also recorded” stand apart in the source; their conditions may differ. Like-named read-outs stand apart in the source and are kept apart here.

Legend:
Solubility of sEHI = type: physicochemical; conditions: PEG300, organic solvent or mixture
Experimental: […] The non-dissolved compounds were filtered through a 0.22 μm centrifuge filter at 40°C and the supernatant was further diluted 10 times with methanol. The samples were analyzed by LC/MS-MS.

Microsomal stability = type: in vitro ADME, dog; conditions: for % Parent + NADPH / % Parent − NADPH: 60 min, 37°C
Experimental: Male and female dog liver microsomes (Xenotech) were diluted in potassium phosphate buffer (0.1M, pH 7.4), MgCl2 (3.15 mM), and sodium EDTA (1.05 mM) to a final protein concentration of 1 mg/mL. Compounds were added at 0.1 mM in methanol at 1% and microsomes were activated with 5% (v/v) NADPH regenerating system (100 μL sodium phosphate buffer (0.1M, pH 7.4), 50 μL, glucose-6-phosphate in sodium phosphate buffer (0.1M, pH 7.4), 50 μL NADP+ in sodium phosphate (0.1M, pH 7.4), and 50 μL of 100 Units/mL of […]). […] Compounds were incubated without microsomes or NADPH as negative controls.

[1] = PK analysis in satellite dogs; type: in vivo, dog; conditions: beagle, dog, whole blood; for AUC(0-t) / Cmax: detected EC1728, blood
Experimental: (§1) Eight satellite dogs (2 per each group) had whole blood collected for PK analysis on study Days […]. On Day 1, blood was collected immediately prior to dosing, and again at 0.25, 0.5, 1, 2, 4, 6, and 8 (±5 min) after dosing. On Day 2 through 4, blood was collected 0.5 h (±5 min) after dosing. On Day 5 blood was collected immediately prior to dosing, and again at 0.25, 0.5, 1, 2, 4, 6, 8 (±5 min), 24, 48, and 72 h (±30 min) post treatment. […] For all blood samples, a minimum of 3 mL of whole blood was collected from a suitable vein as per written and approved standard operating procedures. The blood was transferred to K2EDTA (spray dried) blood tube and inverted gently multiple times to ensure proper mixing of the blood and anticoagulant. On study Day 5, synovial fluid was collected by arthrocentesis immediately after the subject completed the questionnaire (approximately […] after dosing). Subjects were anesthetized as per written and approved Standard Operating Procedures. A minimum of 0.1 mL of synovial fluid was collected from each subject. Samples were frozen in an upright position and stored at -80°C ± 4°C before being shipped to UC Davis for analysis.
For PK analysis in the satellite group, individual parameters were calculated by fitting blood concentrations to a non-compartmental analysis using Kinetica software (Thermo Fisher Scientific version 5.1). Using the log-linear trapezoidal method, the area under the curve were calculated and were extrapolated to infinity using the last measured plasma concentration (Clast), defined as the timepoint collected 72 h after the last dose or 8 hr after the first dose on day 1, divided by the terminal slope (λz).

[2] = Blood and synovial fluid concentrations in treated osteoarthritic dogs; type: in vivo, dog; conditions: for concentration at 2 h: beagle, dog, oral, EC1728 5 mg/kg; for Blood concentration D5 / Synovial fluid concentration D1 / Synovial fluid concentration D5: po, qd x 5, detected EC1728, individual dogs;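 as to Synovial fluid concentration D1: synovial fluid also sampled on Day 1 after the pain assessment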
Experimental: as §1
(§2) Pain and function were assessed by a questionnaire answered by blinded technicians based on observation of study animals housed at InterVivo. The survey was adapted from the canine brief pain inventory (CBPI), which was developed based on clinical questionnaires in which owners score the function and pain level of their pets with existing pain conditions ([Brown et al., 2007]). Modifications to the questionnaire attempted to account for differences between owner pain evaluation of pets and pain evaluation of laboratory dogs by technical staff. For survey administration, blinded technicians attempted to elicit objective behavior-specific measures of function and pain level across a variety of normal canine behaviors (e.g., walking, trotting, galloping, rearing, and stair-climbing, etc.). For this, one technician was responsible for soliciting the relevant behaviors from a dog using encouragement and/or food rewards, while the evaluating technician scored function and observable pain using the modified CBPI questionnaire. Subjects were tested daily on Days -7 through -3, to develop baseline scores, and again on Days 1 through 5 administered 1.5 h after dosing. Dosing occurred in the morning, and observations were recorded 1.5 h after dosing, to limit time-of-day variability. Questions are listed in Supplementary Table S3. Animals in treatment groups had blood and synovial fluid collected ∼2 h after the last dose on day 5 (immediately following the study questionnaire) to confirm plasma concentrations in treated animals. Full pharmacokinetic assessments were collected from a satellite group of animals so as not to interfere with pain assessment.

aged beagle dogs with OA = test: Pain and function assessment (modified CBPI questionnaire) in arthritic dogs; type: in vivo, dog
Experimental: The study was conducted as a blinded, parallel matched-group design. Dogs were randomized into groups based on pretreatment pain scores and each group was randomly assigned a treatment. Prior to randomization, each dog was assessed for arthritis by radiograph to assess the severity of OA by presence of osteophytes, subchondral sclerosis or joint effusion each scored on a scale of 0 (least) to 3 (worst) for each of 12 joints. Severity of the radiograph score was included in the randomization protocol and distributed between the groups, and there were no statistical differences between the averages of each group. Individual radiograph scores can be found in Supplementary Table S2. […] Compounds were dissolved in PEG300 to a concentration of 2.4 mg/mL (1 mg/kg) and 12 mg/mL (5 mg/kg) and administered as approximately 5 mL in size 12 gelatin capsules (Torpac) administered once daily on days 1 through 5. Vehicle group consisted of 5 mL PEG300 in capsule. Concurrent medications were not allowed and not needed during the study.
as §2, with “Animals in treatment groups had blood and synovial fluid collected ∼2 h after the last dose on day 5 (immediately following the study questionnaire) to confirm plasma concentrations in treated animals. Full pharmacokinetic assessments were collected from a satellite group of animals so as not to interfere with pain assessment.” left out
Canine pain and function data were analyzed using ANOVA, linear mixed effects model, with Tukey adjustment in R and repeated measures ANOVA. Correlations coefficients were calculated in Graphpad Prism using the non-parametric Spearman correlation coefficient. In vitro experiments were analyzed using ANOVA in Graphpad Prism. […]

[3] = female, po, 1 mg/kg, dosed EC1728 1 mg/kg oral qd, female dog, Day 1
[4] = female, po, 1 mg/kg, dosed EC1728 1 mg/kg oral qd, female dog, Day 5
[5] = female, po, 5 mg/kg, dosed EC1728 5 mg/kg oral qd, female dog, Day 1
[6] = female, po, 5 mg/kg, dosed EC1728 5 mg/kg oral qd, female dog, Day 5
[7] = male, po, 1 mg/kg, dosed EC1728 1 mg/kg oral qd, male dog, Day 1
[8] = male, po, 1 mg/kg, dosed EC1728 1 mg/kg oral qd, male dog, Day 5
[9] = male, po, 5 mg/kg, dosed EC1728 5 mg/kg oral qd, male dog, Day 1
[10] = male, po, 5 mg/kg, dosed EC1728 5 mg/kg oral qd, male dog, Day 5

O=C(Nc1ccc(OC(F)(F)F)cc1)N[C@H]1CC[C@H](Oc2ccc(C(=O)O)cc2)CC1 [EC1728, trans-4-{4-[3-(4-trifluoromethoxy-phenyl)-ureido]-cyclohexyloxy}-benzoic acid]
solubility (Solubility of sEHI): 97 ± 2 mg/mL (≈ 221 mM)
% Parent + NADPH (Microsomal stability; female dog liver microsomes): 98 ± 6%
% Parent − NADPH (Microsomal stability; female dog liver microsomes): 106 ± 9%
% Parent + NADPH (Microsomal stability; male dog liver microsomes): 103 ± 6%
% Parent − NADPH (Microsomal stability; male dog liver microsomes): 108 ± 8%
remaining at 1 h, 1 µM (Microsomal stability; pH 7.4, dog liver microsomes, 60-min incubation, sex not specified): > 95%
half-life ([1]; oral, satellite dogs, range over both compounds, Table 3, read-out: half-life): 24 to 40 h
AUC(0-t) [1, 3]: 1350 ng·h/mL
Cmax [1, 3]: 308 ng/mL
AUC(0-t) [1, 4]: 155000 ng·h/mL
Cmax [1, 4]: 4660 ng/mL
half-life ([1]; female, po, 1 mg/kg, read-out: T1/2 (converted)): 33 h
AUC(0-t) [1, 5]: 4940 ng·h/mL
Cmax [1, 5]: 1160 ng/mL
AUC(0-t) [1, 6]: 53200 ng·h/mL
Cmax [1, 6]: 4990 ng/mL
half-life ([1]; female, po, 5 mg/kg, read-out: T1/2 (converted)): 23 h
AUC(0-t) [1, 7]: 1690 ng·h/mL
Cmax [1, 7]: 330 ng/mL
AUC(0-t) [1, 8]: 32000 ng·h/mL
Cmax [1, 8]: 1900 ng/mL
half-life ([1]; male, po, 1 mg/kg, read-out: T1/2 (converted)): 27 h
AUC(0-t) [1, 9]: 3760 ng·h/mL
Cmax [1, 9]: 1100 ng/mL
AUC(0-t) [1, 10]: 96300 ng·h/mL
Cmax [1, 10]: 1930 ng/mL
half-life ([1]; male, po, 5 mg/kg, read-out: T1/2 (converted)): 25 h
concentration at 2 h ([2]; blood, 5 mg/kg, day 5, group without dog 2.4, read-out: Blood concentration, average for the remainder of the group): 395 ng/mL
concentration at 2 h ([2]; synovial fluid, 5 mg/kg, day 5, read-out: Synovial fluid concentration, averaged for the group): 988 ng/mL
concentration at 2 h ([2]; synovial fluid, 5 mg/kg, dog 2.4 (low exposure, removed from analysis), read-out: Synovial fluid concentration, dog 2.4): 80 to 95 ng/mL
Blood concentration D5 ([2]; dosed EC1728 1 mg/kg, 1 mg/kg): 31 ng/mL and 72 ng/mL and 76 ng/mL and 64 ng/mL and 82 ng/mL and 40 ng/mL and 36 ng/mL and 171 ng/mL
Synovial fluid concentration D1 ([2]; dosed EC1728 1 mg/kg, 1 mg/kg): 331 ng/mL and 206 ng/mL and 455 ng/mL and 232 ng/mL and 483 ng/mL and 111 ng/mL and 384 ng/mL and 917 ng/mL
Synovial fluid concentration D5 ([2]; dosed EC1728 1 mg/kg, 1 mg/kg): 239 ng/mL and 206 ng/mL and 378 ng/mL and 328 ng/mL and 315 ng/mL and 171 ng/mL and 214 ng/mL and 945 ng/mL
Blood concentration D5 ([2]; dosed EC1728 5 mg/kg, 5 mg/kg): 34 ng/mL and 206 ng/mL and 348 ng/mL and 314 ng/mL and 935 ng/mL and 228 ng/mL and 493 ng/mL and 244 ng/mL
Synovial fluid concentration D1 ([2]; dosed EC1728 5 mg/kg, 5 mg/kg): 2270 ng/mL and 301 ng/mL and 1180 ng/mL and 2220 ng/mL and 1470 ng/mL and 460 ng/mL and 95 ng/mL
Synovial fluid concentration D5 ([2]; dosed EC1728 5 mg/kg, 5 mg/kg): 1000 ng/mL and 1150 ng/mL and 833 ng/mL and 1330 ng/mL and 672 ng/mL and 668 ng/mL and 2170 ng/mL and 80 ng/mL
function scores compared to the other groups (trend) (aged beagle dogs with OA; 5 mg/kg oral once daily): tended to have increased function scores
pain compared to placebo / vehicle control (aged beagle dogs with OA; 5 mg/kg oral once daily for 5 days, p < 0.05): significantly reduced pain; also recorded: significantly less pain
increase in function (aged beagle dogs with OA; 5 mg/kg oral once daily, after 5-days of dosing): 16%
reduction in pain compared to predose values (maximum effect) (aged beagle dogs with OA; 5 mg/kg oral once daily, day 4, average): 44%
